This data set in a line: Bioavailability test of water-soluble curcumin mixture in rats (plasma, HPLC-MS/MS). Type of data set: in vivo. Conditions: intragastric administration, 200 mg·kg^−1 calculated as curcumin, plasma 0.167-12 h.

Source text: After experimental testing in rats, the bioavailability test method of water-soluble curcumin mixture was verified according to the “Guidelines for Validation of 9012 Biological Sample Quantitative Analysis Method” in the fourth appendix of the Pharmacopoeia of the People's Republic of China (2015 Edition). Specific steps are as follows:
24 Healthy SD (spontaneous mutant Danforth's short tail) rats were randomly divided into 4 groups (6 in each group) after being adaptively reared for one week;
In each group, about 0.3 mL of blood was collected from the orbit at 0.167, 0.5, 1, 1.5, 2, 3, 5, 8 and 12 hours after administration, and centrifuged at 4000 rpm for 10 minutes. The plasma was stored at −20° C. for later use.
Separating 100 μL of plasma, adding 0.3 mL of ethyl acetate, mixing for 2 min, centrifuging at 4000 rpm for 10 min, and separating the supernatant; adding 0.3 mL of ethyl acetate to the precipitate, mixing for 2 min, and centrifuging at 4000 rpm for 10 min, vacuum drying at 40° C. Adding 100 μL of methanol to the residue, wetting the centrifuge tube, mixing for 2 min, filtering with 0.22 μm microporous membrane, analyzing and testing.
HPLC-MS/MS with emodin as the internal standard was used for detection, and DAS2.0 software was used to calculate the pharmacokinetic parameters and compare the relative bioavailability.

With `COc1cc(/C=C/C(=O)CC(=O)/C=C/c2ccc(O)c(OC)c2)ccc1O` [curcumin], the “AUC (012 h)” value (SD rats) is 140.36 ng·h/mL. Besides, under “SD, rat, plasma, po, 200 mg/kg, read-out: AUC (012 h)”, the AUC(0-t) is 108 ng·h/mL.

Values taken from patent publication US11642316B2, “Water-soluble curcumin mixture with high bioavailability and preparation method and application thereof” (HENAN ZHONGDA HENGYUAN BIOTECHNOLOGY STOCK CO., LTD., priority 2021, dated 2023).
